Measurements: PMC3516535, “Rhesus Macaque Theta Defensins Suppress Inflammatory Cytokines and Enhance Survival in Mouse Models of Bacteremic Sepsis” (PLoS ONE, 2012)
Bridge positions count the residues as written; N and C are the ends. Peptide text beside a SMILES is read from it.

Key:
[1] = system: human EDTA-anti-coagulated blood diluted 1∶10; assay: TNF release assay in stimulated diluted whole blood (ELISA); type: cell-based
[2] = system: adult chimpanzees

CC[C@H](C)[C@@H]1NC(=O)[C@@H]2CSSC[C@H](NC(=O)[C@H](CCCNC(=N)N)NC(=O)[C@@H]3CSSC[C@H](NC1=O)C(=O)N[C@@H]([C@@H](C)O)C(=O)N[C@@H](CCCNC(=N)N)C(=O)NCC(=O)N[C@@H](Cc1ccccc1)C(=O)N3)C(=O)N[C@@H](CC(C)C)C(=O)N[C@H]1CSSC[C@H](NC(=O)[C@H](C(C)C)NC(=O)CNC(=O)[C@H](CCCNC(=N)N)NC(=O)[C@H](CCCNC(=N)N)NC1=O)C(=O)N[C@@H](CCCNC(=N)N)C(=O)N2 [RTD-1] (cyclo(GFCRCLCRRGVCRCICTR); disulfide 3-16, 5-14, 7-12)
TNF-release inhibition [1]: 70–80% | reduction of TNF levels [1]: 46–93% | clinical and injection site effects ([2]; escalating i.v. doses (0.2 to 3.0 mg/kg over 14 days), two animals): No clinical or injection site effects were observed | comprehensive metabolic panels and complete blood counts with differential ([2]; escalating i.v. doses, all time points incl. days 21, 28, 60): no abnormalities | anti-RTD-1 antibody (dot blot immunoassay) ([2]; serum samples after escalating i.v. doses, two animals): No anti-RTD-1 antibody was detected
